PubChem BioAssay AID1990 (Broad Institute, 2009)
pEC50: −log10 of the molar value. Inconclusive results are not listed. Activity calls are given as the source filed them. The rule behind the calls is not given here.

Biological target: Luciferin 4-monooxygenase (Photinus pyralis) (UniProt P08659)
Test: Photinus pyralis luciferase inhibitors, H4 neuroglioma cells, confirmatory dose response, luminescence (AID 1990)

Chain of Luciferin 4-monooxygenase (Photinus pyralis) (P08659 whole entry, looked up): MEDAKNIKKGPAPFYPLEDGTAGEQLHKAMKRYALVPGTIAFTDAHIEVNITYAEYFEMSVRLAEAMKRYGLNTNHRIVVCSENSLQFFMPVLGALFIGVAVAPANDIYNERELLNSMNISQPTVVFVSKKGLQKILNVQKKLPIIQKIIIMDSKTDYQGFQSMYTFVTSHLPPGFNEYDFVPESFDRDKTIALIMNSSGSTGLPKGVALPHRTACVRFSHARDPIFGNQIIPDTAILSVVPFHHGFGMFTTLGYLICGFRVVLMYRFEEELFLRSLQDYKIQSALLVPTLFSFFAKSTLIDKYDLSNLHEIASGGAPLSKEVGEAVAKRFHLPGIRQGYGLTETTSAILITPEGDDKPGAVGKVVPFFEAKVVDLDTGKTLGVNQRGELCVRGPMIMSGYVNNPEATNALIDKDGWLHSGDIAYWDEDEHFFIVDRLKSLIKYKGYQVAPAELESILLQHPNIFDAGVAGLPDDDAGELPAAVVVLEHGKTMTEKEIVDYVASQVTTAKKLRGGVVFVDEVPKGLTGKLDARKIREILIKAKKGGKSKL

Q: With `COc1ccc(O)c2c(=O)c3c(OC)cc4c(c3oc12)C1C=COC1O4` (stereo not drawn) as the compound, how does the pEC50 read?
A: > 7.00

Q: For `C=C(C=O)CC1CC(O)[C@]2(C)OC3CC4OC5C[C@]6(C)O[C@]7(C)CCC8OC9C[C@]%10(C)OC%11C(C)=CC(=O)OC%11CC%10OC9C[C@@H](C)C8OC7CC6O[C@]5(C)CC5OC5C4OC3CC2O1` (stereo partly drawn), which EC50 is on record?
A: > 12 µM (inactive)

Q: `C#CCOCCOCCOCCNc1nc(N2CCN(C(=O)CCCCCCCCCCNC(=O)[C@H](CO)n3cc(CCCSC)nn3)CC2)nc(N2CCN(C(=O)CCCCCCCCCCNC(=O)[C@H](CCCCN)n3cc(C[C@@H](C)CC)nn3)CC2)n1` was tested. Which pEC50 did it give?
A: 5.14
